# Assay results: patent US11584742B2 (MASARYKOVA UNIVERZITA, priority 2018, dated 2023)
# Molecular target: T1, MRE11 (Homo sapiens, UniProt P49959)
# T1 sequence (P49959 1-708): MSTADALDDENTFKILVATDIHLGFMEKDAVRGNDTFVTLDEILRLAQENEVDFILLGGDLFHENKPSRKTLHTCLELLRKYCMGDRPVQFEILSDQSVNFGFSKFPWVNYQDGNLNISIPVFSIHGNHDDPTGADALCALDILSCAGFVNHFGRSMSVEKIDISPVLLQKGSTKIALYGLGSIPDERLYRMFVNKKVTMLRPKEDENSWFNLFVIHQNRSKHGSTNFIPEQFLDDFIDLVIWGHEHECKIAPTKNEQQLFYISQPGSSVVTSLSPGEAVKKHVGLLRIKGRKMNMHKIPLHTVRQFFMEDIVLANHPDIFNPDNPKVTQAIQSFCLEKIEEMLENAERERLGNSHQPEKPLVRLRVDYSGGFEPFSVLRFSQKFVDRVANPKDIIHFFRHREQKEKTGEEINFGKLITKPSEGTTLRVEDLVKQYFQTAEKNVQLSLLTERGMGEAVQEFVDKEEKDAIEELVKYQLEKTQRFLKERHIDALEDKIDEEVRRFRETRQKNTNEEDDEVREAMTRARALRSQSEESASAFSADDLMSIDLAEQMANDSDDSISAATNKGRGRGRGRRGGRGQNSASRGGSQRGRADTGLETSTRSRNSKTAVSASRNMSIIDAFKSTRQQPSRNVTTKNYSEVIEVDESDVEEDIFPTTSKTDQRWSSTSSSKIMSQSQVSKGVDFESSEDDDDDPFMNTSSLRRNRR
# Assay: HTS nuclease assay (cleavage of CY5/BBQ-quenched 5' overhang DNA substrate)
# Format: biochemical
# Details: in vitro HTS nuclease assay; 18 nM MRE11, 40 nM DNA substrate; analysis at t=4 h
# Protocol: DNA Substrate Preparation
# The DNA substrate is prepared by mixing the oligonucleotides listed below in a 1:1 ratio to reach a final concentration of 6 μM in a buffer containing 50 mM Tris pH 7.5, 100 mM NaCl and 8 mM MgCl2.
# This substrate is a 5′ overhang, which is a preferred substrate of MRE11. […] The fluorescence increases upon substrate cleavage by MRE11, when separation of the two labels occur.
# The conditions of the assay are as follows:
# Total reaction volume: 5 μL
# DNA substrate concentration in the reaction: 40 nM
# Inhibitor concentration range tested: 7 nM-50 μM
# Each plate contains a series of high and low signal control wells, where no compound is added:
# High signal: MRE11+DNA substrate
# Low signal: DNA substrate only
# These are used during data evaluation.
# Two extra assay controls:
# 1) To check whether unwinding of DNA by the compounds alone occurs.
# The DNA substrate [CY5+BBQ(650)] is mixed with the compounds with no protein present.
# The CY5 single stranded oligo is mixed with the compounds with no protein present.
# The layout of the plates is created by the in-house software (CZ-Openscreen Prague) and this information is transferred to the robotic HTS station.
# The reaction is started by the addition of DNA and the reaction time is counted from that moment, including a 15 min delay. Ten timepoints are measured:
# The assay data analysis was performed at t=4 h. This corresponds to the time when the reaction is close to its maximum.
# The data analysis was performed using the in-house software to obtain IC50 for each compound.
row,Compound,IC50
1,"N#C/C(=C\c1cc(Br)c(O)c(Br)c1)C(=O)Nc1nc(Cc2ccccc2)cs1 [Preparative Example 276, (E)-N-(4-benzylthiazol-2-yl)-2-cyano-3-(3,5-dibromo-4-hydroxyphenyl)acrylamide]",2 to 10 µM
2,"N#C/C(=C\c1ccc(O)c(C(=O)O)c1)C(=O)Nc1nc(-c2ccccc2)cs1 [Preparative Example 254, (E)-5-(2-cyano-3-oxo-3-((4-phenylthiazol-2-yl)amino)prop-1-en-1-yl)-2-hydroxybenzoic acid]",10 to 90 µM
3,"N#C/C(=C\c1ccc(O)cc1Br)C(=O)Nc1nc(-c2ccccc2)cs1 [Preparative Example 256, (E)-3-(2-bromo-4-hydroxyphenyl)-2-cyano-N-(4-phenylthiazol-2-yl)acrylamide]",10 to 90 µM
4,"N#C/C(=C\c1ccc(O)c(O)c1)C(=O)Nc1nc(-c2ccccn2)c(-c2cnccn2)s1 [Preparative Example 263, (E)-2-cyano-3-(3,4-dihydroxyphenyl)-N-(5-(pyrazin-2-yl)-4-(pyridin-2-yl)thiazol-2-yl)acrylamide]",< 2 µM
5,"N#C/C(=C\c1cc(O)c(O)c(Br)c1)C(=O)Nc1nc(-c2ncc(N3CCOCC3)cc2F)cs1 [Preparative Example 272, (E)-3-(3-bromo-4,5-dihydroxyphenyl)-2-cyano-N-(4-(3-fluoro-5-morpholinopyridin-2-yl)thiazol-2-yl)acrylamide]",< 2 µM
6,"N#C/C(=C\c1cc(O)c(O)c(Br)c1)C(=O)Nc1nc(-c2ccccc2)cs1 [Preparative Example 266, (E)-3-(3-bromo-4,5-dihydroxyphenyl)-2-cyano-N-(4-phenylthiazol-2-yl)acrylamide]",< 2 µM
7,"N#C/C(=C\c1cc(Cl)c(O)c(Cl)c1)C(=O)Nc1nc(Cc2ccccc2)cs1 [Preparative Example 275, (E)-N-(4-benzylthiazol-2-yl)-2-cyano-3-(3,5-dichloro-4-hydroxyphenyl)acrylamide]",10 to 90 µM
8,"N#C/C(=C\c1ccc(O)c(O)c1)C(=O)Nc1nc(-c2ccc(N3CCOCC3)nc2)cs1 [Preparative Example 265, (E)-2-cyano-3-(3,4-dihydroxyphenyl)-N-(4-(6-morpholinopyridin-3-yl)thiazol-2-yl)acrylamide]",2 to 10 µM
9,"N#C/C(=C\c1ccc(O)c(Br)c1)C(=O)Nc1nc(-c2ccccc2)cs1 [Preparative Example 202, (E)-3-(3-bromo-4-hydroxyphenyl)-2-cyano-N-(4-phenylthiazol-2-yl)acrylamide]",2 to 10 µM
10,"N#C/C(=C\c1cc(O)c(O)c(F)c1)C(=O)Nc1nc(-c2ccccc2)cs1 [Preparative Example 267, (E)-2-cyano-3-(3-fluoro-4,5-dihydroxyphenyl)-N-(4-phenylthiazol-2-yl)acrylamide]",< 2 µM
11,"N#C/C(=C\c1ccc(O)c(CO)c1)C(=O)Nc1nc(-c2ccccc2)cs1 [Preparative Example 260, (E)-2-cyano-3-(4-hydroxy-3-(hydroxymethyl)phenyl)-N-(4-phenylthiazol-2-yl)acrylamide]",2 to 10 µM
12,"N#C/C(=C\c1ccc(C(=O)O)c(O)c1)C(=O)Nc1nc(-c2ccccc2)cs1 [Preparative Example 259, (E)-4-(2-cyano-3-oxo-3-((4-phenylthiazol-2-yl)amino)prop-1-en-1-yl)-2-hydroxybenzoic acid]",2 to 10 µM
13,"COc1cc(/C=C(\C#N)C(=O)Nc2nc(-c3ccccc3)cs2)cc(C#N)c1O [Preparative Example 268, (E)-2-cyano-3-(3-cyano-4-hydroxy-5-methoxyphenyl)-N-(4-phenylthiazol-2-yl)acrylamide]",10 to 90 µM
14,"Cc1cc(/C=C(\C#N)C(=O)Nc2nc(-c3ncccc3F)cs2)cc(C)c1O [Preparative Example 250, (E)-2-cyano-N-(4-(3-fluoropyridin-2-yl)thiazol-2-yl)-3-(4-hydroxy-3,5-dimethylphenyl)acrylamide]",10 to 90 µM
15,"N#C/C(=C\c1ccc(O)c(O)c1)C(=O)Nc1nc(-c2ncc(N3CCOCC3)cc2F)cs1 [Preparative Example 270, (E)-2-cyano-3-(3,4-dihydroxyphenyl)-N-(4-(3-fluoro-5-morpholinopyridin-2-yl)thiazol-2-yl)acrylamide]",< 2 µM
16,"COC(=O)c1ccc(/C=C(\C#N)C(=O)Nc2nc(-c3ccccc3)cs2)cc1O [Preparative Example 258, Methyl (E)-4-(2-cyano-3-oxo-3-((4-phenylthiazol-2-yl)amino)prop-1-en-1-yl)-2-hydroxybenzoate]",2 to 10 µM
17,"N#C/C(=C\c1ccc(O)c(C(N)=O)c1)C(=O)Nc1nc(-c2ccccc2)cs1 [Preparative Example 255, (E)-5-(2-cyano-3-oxo-3-((4-phenylthiazol-2-yl)amino)prop-1-en-1-yl)-2-hydroxybenzamide]",10 to 90 µM
18,"N#C/C(=C\c1cc(Cl)c(O)c(Cl)c1)C(=O)Nc1nc(-c2ncccc2F)cs1 [Preparative Example 252, (E)-2-cyano-3-(3,5-dichloro-4-hydroxyphenyl)-N-(4-(3-fluoropyridin-2-yl)thiazol-2-yl)acrylamide]",< 2 µM
19,"N#C/C(=C\c1cc(O)c(O)c(C#N)c1)C(=O)Nc1nc(-c2ccccc2)cs1 [Preparative Example 269, (E)-2-cyano-3-(3-cyano-4,5-dihydroxyphenyl)-N-(4-phenylthiazol-2-yl)acrylamide]",< 2 µM
20,"Cc1cc(/C=C(\C#N)C(=O)Nc2nc(-c3ccccn3)cs2)cc(C)c1O [Preparative Example 248, (E)-2-cyano-3-(4-hydroxy-3,5-dimethylphenyl)-N-(4-(pyridin-2-yl)thiazol-2-yl)acrylamide]",10 to 90 µM
21,"N#C/C(=C\c1ccc(O)c(O)c1)C(=O)Nc1ncc(-c2cnccn2)s1 [Preparative Example 262, (E)-2-cyano-3-(3,4-dihydroxyphenyl)-N-(5-(pyrazin-2-yl)thiazol-2-yl)acrylamide]",10 to 90 µM
22,"N#C/C(=C\c1cc(Br)c(O)c(Br)c1)C(=O)Nc1nc(-c2ncccc2F)cs1 [Preparative Example 251, (E)-2-cyano-3-(3,5-dibromo-4-hydroxyphenyl)-N-(4-(3-fluoropyridin-2-yl)thiazol-2-yl)acrylamide]",< 2 µM
23,"N#C/C(=C\c1ccc(O)c(O)c1)C(=O)Nc1nc(Cc2ccccc2)cs1 [Preparative Example 273, (E)-N-(4-benzylthiazol-2-yl)-2-cyano-3-(3,4-dihydroxyphenyl)acrylamide]",< 2 µM
24,"N#C/C(=C\c1cc(Br)c(O)c(Br)c1)C(=O)Nc1nc(-c2ncc(N3CCOCC3)cc2F)cs1 [Preparative Example 271, (E)-2-cyano-3-(3,5-dibromo-4-hydroxyphenyl)-N-(4-(3-fluoro-5-morpholinopyridin-2-yl)thiazol-2-yl)acrylamide]",< 2 µM
25,"N#C/C(=C\c1ccc(O)c(O)c1)C(=O)Nc1nc(-c2cccc(N3CCOCC3)n2)cs1 [Preparative Example 264, (E)-2-cyano-3-(3,4-dihydroxyphenyl)-N-(4-(6-morpholinopyridin-2-yl)thiazol-2-yl)acrylamide]",2 to 10 µM
26,"N#C/C(=C\c1cc(Br)c(O)c(Br)c1)C(=O)Nc1nc(-c2ccccn2)cs1 [Preparative Example 249, (E)-2-cyano-3-(3,5-dibromo-4-hydroxyphenyl)-N-(4-(pyridin-2-yl)thiazol-2-yl)acrylamide]",< 2 µM
27,"CC(C)(C)c1ccc(-c2csc(NC(=O)/C(C#N)=C/c3cc(Cl)c(O)c(Cl)c3)n2)cc1 [Preparative Example 224, (E)-N-(4-(4-(tert-butyl)phenyl)thiazol-2-yl)-2-cyano-3-(3,5-dichloro-4-hydroxyphenyl)acrylamide]",2 to 10 µM
28,"N#C/C(=C\c1ccc(O)c(O)c1)C(=O)Nc1nc(C(=O)c2ccccc2)cs1 [Preparative Example 261, (E)-N-(4-benzoylthiazol-2-yl)-2-cyano-3-(3,4-dihydroxyphenyl)acrylamide]",< 2 µM
